Key:
Type in all cases: cell-based
[1] = molecular target: T1, R232 hSTING variant (Homo sapiens, UniProt Q86WV6, H232R); assay: IRF3 reporter induction in THP1-Dual KI-hSTING-R232 Cells; settings: THP1-Dual KI-hSTING-R232 Cells (R232 Haplotype)
T1 construct: expressed in transfected cells; host or cells: THP1-Dual KI-hSTING-R232 cells, generated from THP1-Dual KO-STING cells
Protocol: (§1) THP1-Dual™ Human Monocytes cells with the homozygous HAQ allele, known to be a natural variant allele of STING occurring in 20% of the human population (Invivogen) have been engineered with two independent gene reporter systems: a secreted embryonic alkaline phosphatase (SEAP) reporter gene for NFkB activity, and secreted luciferase reporter for […] (IRF3) activity were used. 4×10^5 THP1-Dual™ cells were incubated with test Compounds in a 5-fold titration steps from 1 to 0.0128 μM in RPMI media with 10% FBS, for 24 hours at 37° C. with 5% CO2. Cell culture supernatants (20 μl) from each incubated sample was added to resuspended QUANTI-Blue™ Solution (Invivogen, 180 μl) in each well of a flat-bottom 96-well plate, then incubated for 2 h. NFkB levels were evaluated using a spectrophotometer at 620-655 nm.
(§2) To evaluate IRF3 reporter levels, cell culture supernatant (20 μl) from each incubated sample was added to QUANTI-Luc™ assay solution (Invivogen, 50 μl), and the luminescence was measured with a SpectraMax M3 spectrophotometer (Molecular Devices).
(§3) NFkB and IRF3 reporter levels were also determined for THP1-Dual™ KI-hSTING-H232 Cells and THP1-Dual™ KI-hSTING-R232 Cells. THP1-Dual™ KI-hSTING-H232 Cells (R232H Haplotype) were generated from THP1-Dual™ KO-STING cells by knockin of the intronless coding sequence (from the ATG to TGA) of the R232H human STING variant (Invivogen). R232H has been identified as a natural variant allele of STING occurring in ˜14% of the human population. THP1-Dual™ KI-hSTING-R232 Cells (R232 Haplotype) were generated from THP1-Dual™ KO-STING cells by knockin of the intronless coding sequence (from the ATG to the TGA) of the R232 hSTING variant. Genomic studies indicate that this variant, which contains an arginine at position 232 (R232), is the most prevalent variant with an occurrence (homozygous allele) of ˜45-58% in the human population.
(§4) The EC50 value was determined from the dose response curve based on reference Compounds. Table 2a provides the results for IRF3 reporter induction THP1-Dual™ Human Monocytes cells and Table 2b provides the results for IRF3 reporter induction in THP1-Dual™ KI-hSTING-H232 Cells and THP1-Dual™ KI-hSTING-R232 Cells (“A” means <30 nM; “B” means ≥30 nM and <100 nM; “C” means ≥100 nM).

[2] = molecular target: T2, R232H human STING variant (Homo sapiens, UniProt Q86WV6); assay: IRF3 reporter induction in THP1-Dual KI-hSTING-H232 Cells; settings: THP1-Dual KI-hSTING-H232 Cells (R232H Haplotype)
T2 construct: host or cells: THP1-Dual KI-hSTING-H232 cells, generated from THP1-Dual KO-STING cells
Protocol: as §1, §2, §3, §4

[3] = molecular target: T3, Human STING (HAQ allele) (Homo sapiens, UniProt Q86WV6, G230A/H232R/R293Q/R71H); assay: IRF3 reporter induction in THP1-Dual Human Monocytes cells (homozygous HAQ STING allele); settings: IRF3 reporter (secreted luciferase), 24 hours incubation
T3 construct: THP1-Dual™ Human Monocytes cells with the homozygous HAQ allele; host or cells: THP1-Dual human monocytes
Protocol: as §1, §2, §4

[4] = molecular target: T4, Human STING (Homo sapiens, UniProt Q86WV6, G230A/H232R/R293Q/R71H); assay: Activation of human STING signaling in permeabilized THP1 cells, IRF3 induction; settings: THP1-Dual cells permeabilized with digitonin buffer 30 minutes on ice, then 24 h in RPMI media
T4 construct: host or cells: THP1-Dual cells, digitonin-permeabilized
Protocol: as §2
4×10^5 THP1-Dual™ cells (NF-κB-SEAP and IRF-Lucia luciferase Reporter Monocytes, Invivogen) were incubated with test Compounds in a 5-fold titration steps from […] in permeabilized buffer (50 mM HEPES pH 7.0, 100 mM KCl, 3 mM MgCl2, 85 mM sucrose, 0.2% BSA, 1 mM ATP, 0.1 mM GTP, 0.1 mM TTP, 1 μg/ml digitonin) for 30 minutes on ice. Cells were then washed and incubated in a fresh RPMI media with 10% FBS at 37° C. with 5% CO2 for 24 h. Cell culture supernatants from each sample were collected and NFkB and IRF3 were evaluated as above. Table 3 provides the results for IRF3 induction (“A” means <1 μM; “B” means ≥1 μM and <50 μM; “C” means ≥50 μM).

T1 sequence (Q86WV6 whole entry H232R): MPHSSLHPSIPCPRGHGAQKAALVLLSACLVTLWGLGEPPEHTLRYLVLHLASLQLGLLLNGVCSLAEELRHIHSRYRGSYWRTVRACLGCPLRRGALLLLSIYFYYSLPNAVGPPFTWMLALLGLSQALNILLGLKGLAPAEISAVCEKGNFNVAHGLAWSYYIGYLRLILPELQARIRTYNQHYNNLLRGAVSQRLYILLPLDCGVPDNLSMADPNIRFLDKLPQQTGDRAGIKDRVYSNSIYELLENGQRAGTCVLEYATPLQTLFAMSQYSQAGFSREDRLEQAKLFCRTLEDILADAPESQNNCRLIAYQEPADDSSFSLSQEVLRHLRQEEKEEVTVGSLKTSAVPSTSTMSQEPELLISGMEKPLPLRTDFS
T2 sequence (Q86WV6 whole entry, stated change not applied): as the sequence (Q86WV6 whole entry H232R) above, with R232H counted along it
T4 sequence (Q86WV6 whole entry R71H/G230A/H232R/R293Q): as the sequence (Q86WV6 whole entry H232R) above, with R71H, G230A, R293Q counted along it
T3 sequence (Q86WV6 whole entry R71H/G230A/H232R/R293Q): as the sequence (Q86WV6 whole entry H232R) above, with R71H, G230A, R293Q counted along it

Row | EC50 [4] [nM] | Structure (SMILES) | other results
1 | < 1000 | CCc1nc(C)oc1C(=O)/N=c1\sc2cc(C(N)=O)cc(OCCCO)c2n1C/C=C/Cn1c(NC(=O)c2cc(C)nn2CC)nc2cc(C(N)=O)cnc21 [compound 148] | EC50 [1]: < 30 nM; EC50 [2]: < 30 nM; EC50 [3]: ≥ 100 nM
2 | < 1000 | CCc1nc(C)oc1C(=O)Nc1nc2cc(C(N)=O)cnc2n1C/C=C/Cn1c(NC(=O)c2oc(C)nc2CC)nc2cc(C(N)=O)cc(OCCCC(=O)O)c21 [compound 97] | EC50 [3]: ≥ 100 nM
3 | < 1000 | CCc1nc(C)oc1C(=O)Nc1nc2cc(C(N)=O)cc(OC)c2n1C/C=C/Cn1c(NC(=O)c2cc(C)nn2CC)nc2cc(C(N)=O)cc(OCCCO)c21 [compound 43] | EC50 [3]: < 30 nM
4 | < 1000 | CCc1nn(C)cc1C(=O)Nc1nc2cc(C(N)=O)cc(OCCCO)c2n1C/C=C/Cn1c(NC(=O)c2cc(C)nn2CC)nc2cc(C(N)=O)ccc21 [compound 53] | EC50 [3]: ≥ 100 nM
5 | < 1000 | CCn1nc(C)cc1C(=O)/N=c1\sc2cc(C(N)=O)cc(OC)c2n1C/C=C/Cn1c(NC(=O)c2cc(C)nn2CC)nc2cc(C(N)=O)cc(OCCCO)c21 [compound 65] | EC50 [3]: < 30 nM
6 |  | CCc1nc(C)oc1C(=O)Nc1nc2cc(C(N)=O)cc(OCCCO)c2n1C/C=C/Cn1/c(=N/C(=O)c2cc(C)nn2CC)sc2cc(C(N)=O)cc(OC)c21 [compound 69] | EC50 [1]: < 30 nM; EC50 [2]: < 30 nM; EC50 [3]: ≥ 100 nM
7 | < 1000 | CCc1nc(C)oc1C(=O)Nc1nc2cc(C(N)=O)cc(OC)c2n1C/C=C/Cn1c(NC(=O)c2oc(C)nc2CC)nc2cc(C(N)=O)cc(OCCCN)c21 [compound 18] | EC50 [3]: 30 to 100 nM
8 | 1000 to 50000 | CCc1nn(C)cc1C(=O)Nc1nc2cc(C(N)=O)cc(OC)c2n1C/C=C/Cn1c(NC(=O)c2cn(C)nc2CC)nc2cc(C(N)=O)cc(OCCCO)c21 [compound 11] | 
9 | < 1000 | CCn1nc(C)cc1C(=O)/N=c1\sc2cc(C(N)=O)cc(OC)c2n1C/C=C/Cn1c(NC(=O)c2cc(C)nn2CC)nc2cc(C(N)=O)cc(OCCCN)c21 [compound 67] | 
10 | < 1000 | CCn1nc(C)cc1C(=O)Nc1nc2cc(C(N)=O)cnc2n1C/C=C/Cn1c(NC(=O)c2cc(C)nn2CC)nc2cc(C(N)=O)cnc21 [compound 84] | 
11 | ≥ 50000 | CCc1nc(C)sc1C(=O)Nc1nc2cc(C(N)=O)cnc2n1C/C=C/Cn1c(NC(=O)c2sc(C)nc2CC)nc2cc(C(N)=O)cc(OCCCO)c21 [Compound 144] | 
12 | < 1000 | CCc1nc(C)sc1C(=O)Nc1nc2cc(C(N)=O)cc(OCCCO)c2n1C/C=C/Cn1c(NC(=O)c2cc(C)nn2CC)nc2cc(C(N)=O)ccc21 [compound 52] | 
13 | 1000 to 50000 | CCc1nc(C)oc1C(=O)Nc1nc2cc(C(N)=O)cnc2n1C/C=C/Cn1c(NC(=O)c2oc(C)nc2CC)nc2cc(C(N)=O)cnc21 [compound 85] | 
14 | 1000 to 50000 | CCc1nc(C)oc1C(=O)Nc1nc2cc(CN(C)C)cc(OC)c2n1C/C=C/Cn1c(NC(=O)c2oc(C)nc2CC)nc2cc(C(N)=O)cc(OCCCO)c21 [Compound 133] | 
15 | ≥ 50000 | COc1cc(C(N)=O)cc2nc(NC(=O)c3nccn3C(C)C)n(C/C=C/Cn3c(NC(=O)c4nccn4C(C)C)nc4cc(C(N)=O)cc(OCCCO)c43)c12 [compound 15] | 
16 |  | CCc1nc(C)oc1C(=O)/N=c1\sc2nc(C(N)=O)cnc2n1C/C=C/Cn1c(NC(=O)c2oc(C)nc2CC)nc2cc(C(N)=O)cc(OCCCO)c21 [compound 167] | EC50 [1]: 30 to 100 nM; EC50 [2]: 30 to 100 nM; EC50 [3]: ≥ 100 nM
17 | ≥ 50000 | CCn1nc(C)cc1C(=O)/N=c1\sc2cc(C(N)=O)cc(OC)c2n1C/C=C/Cn1c(NC(=O)C2=C(C)OCC2)nc2cc(C(N)=O)cc(OCCCO)c21 [compound 75] | 
18 | 1000 to 50000 | CCc1nc(C)sc1C(=O)Nc1nc2cc(C(N)=O)cc(OC)c2n1C/C=C/Cn1c(NC(=O)c2sc(C)nc2CC)nc2cc(C(N)=O)cc(OCCCC(=O)O)c21 [Compound 141] | 

Row | EC50 [4] [nM] | Structure (SMILES) | other results
19 | < 1000 | CCc1nc(C)oc1C(=O)/N=c1\sc2cc(C(N)=O)cnc2n1C/C=C/Cn1c(NC(=O)c2oc(C)nc2CC)nc2cc(C(N)=O)cc(OCCCC(=O)O)c21 [Compound 155] | 
20 | < 1000 | CCn1nc(C)cc1C(=O)/N=c1\sc2cc(C(N)=O)cnc2n1C/C=C/Cn1c(NC(=O)c2cc(C)nn2CC)nc2cc(C(N)=O)cc(OCCCC(=O)O)c21 [Compound 140] | 
21 | < 1000 | CCc1nc(C)oc1C(=O)Nc1nc2cc(C(N)=O)cnc2n1C/C=C/Cn1c(NC(=O)c2oc(C)nc2CC)nc2cc(C(N)=O)cc(OCCCN)c21 [compound 96] | 
22 | < 1000 | CCn1nc(C)cc1C(=O)Nc1nc2cc(CN)cnc2n1C/C=C/Cn1c(NC(=O)c2cc(C)nn2CC)nc2cc(C(N)=O)cc(OCCCO)c21 [Compound 122] | 
23 | ≥ 50000 | CCc1ncoc1C(=O)/N=c1\sc2cc(C(N)=O)cc(OC)c2n1C/C=C/Cn1c(NC(=O)c2ocnc2CC)nc2cc(C(N)=O)cc(OCCCO)c21 [compound 64] | 
24 | ≥ 50000 | Cn1nncc1C(=O)Nc1nc2cc(C(N)=O)ccc2n1C/C=C/Cn1c(NC(=O)c2cnnn2C)nc2cc(C(N)=O)cc(OCCCO)c21 [compound 27] | 
25 | < 1000 | CCn1nc(C)cc1C(=O)Nc1nc2cc(CNC(C)=O)cnc2n1C/C=C/Cn1c(NC(=O)c2cc(C)nn2CC)nc2cc(C(N)=O)cc(OCCCO)c21 [Compound 126] | 
26 | < 1000 | CCc1nc(C)oc1C(=O)Nc1nc2cc(C(N)=O)cnc2n1C/C=C/Cn1c(NC(=O)c2oc(C)nc2CC)nc2cc(C(N)=O)cc(Br)c21 [compound 90] | 
27 | < 1000 | CCc1nc(C)oc1C(=O)Nc1nc2cc(C(N)=O)cc(OCCCO)c2n1C/C=C/Cn1c(NC(=O)c2cc(C)nn2CC)nc2cc(C(N)=O)cnc21 [Compound 111] | 
28 | < 1000 | CCc1nn(C)cc1C(=O)Nc1nc2cc(C(N)=O)cc(OCCCO)c2n1C/C=C/Cn1c(NC(=O)c2cc(C)nn2CC)nc2cc(C(N)=O)cc(OC)c21 [compound 39] | 
29 | ≥ 50000 | CCc1nc(C)n(C)c1C(=O)Nc1nc2cc(C(N)=O)cc(OCCCO)c2n1C/C=C/Cn1c(NC(=O)c2cc(C)nn2CC)nc2cc(C(N)=O)cc(OC)c21 [compound 41] | 
30 | ≥ 50000 | COc1cc(C(N)=O)cc2nc(NC(=O)c3cnc(C)n3C)n(C/C=C/Cn3c(NC(=O)c4cnc(C)n4C)nc4cc(C(N)=O)cc(OCCCO)c43)c12 [compound 16] | 
31 | < 1000 | CCc1nc(C)oc1C(=O)Nc1nc2cc(C(N)=O)cc(OCCCO)c2n1C/C=C/Cn1c(NC(=O)c2cc(C)nn2CC)nc2cc(C(N)=O)cc(OC)c21 [compound 36] | 
32 | < 1000 | CCc1nc(C)oc1C(=O)Nc1nc2cc(C(N)=O)cc(OCCCC(=O)O)c2n1C/C=C/Cn1/c(=N/C(=O)c2cc(C)nn2CC)sc2cc(C(N)=O)cc(OC)c21 [Compound 150] | 
33 | ≥ 50000 | NC(=O)c1ccc2c(c1)nc(NC(=O)c1cocn1)n2C/C=C/Cn1c(NC(=O)c2cocn2)nc2cc(C(N)=O)cc(OCCCO)c21 [compound 28] | 
34 | ≥ 50000 | CCn1nc(C)cc1C(=O)Nc1nc2cc(CNC(C)=O)cnc2n1C/C=C/Cn1c(NC(=O)c2cc(C)nn2CC)nc2cc(C(N)=O)cc(OC)c21 [Compound 137] | 
35 | 1000 to 50000 | CCn1nc(C)cc1C(=O)Nc1nc2cc(CN)cnc2n1C/C=C/Cn1c(NC(=O)c2cc(C)nn2CC)nc2cc(C(N)=O)cc(OC)c21 [Compound 129] | 

From patent publication US11155567B2, “Sting agonist compounds and methods of use” (Mersana Therapeutics, Inc., priority 2019, dated 2021)
